The values below come from patent US5486597A, “Tetrapeptide derivatives and analogues” (James Black Foundation Limited, priority 1990, dated 1996).

Non-standard residues stand in square brackets, D forms with d. Residues, ends and D or L forms follow the SMILES beside them. *: point of attachment. 2Nal = N[C@@H](Cc1ccc2ccccc2c1)C(=O)O; Boc = CC(C)(C)OC(=O)*

What all share (format): cell-based
Assay [1] deals with T1, gastrin receptor (Cavia porcellus, UniProt H0VZC5).
T1 construct: Strips of muscle (approximately 2.5 cm by 1 cm) are removed from the proximal area of the stomach; from tissue; host or cells: guinea-pig proximal stomach (fundus) muscle strips
T1 sequence (H0VZC5 1-426): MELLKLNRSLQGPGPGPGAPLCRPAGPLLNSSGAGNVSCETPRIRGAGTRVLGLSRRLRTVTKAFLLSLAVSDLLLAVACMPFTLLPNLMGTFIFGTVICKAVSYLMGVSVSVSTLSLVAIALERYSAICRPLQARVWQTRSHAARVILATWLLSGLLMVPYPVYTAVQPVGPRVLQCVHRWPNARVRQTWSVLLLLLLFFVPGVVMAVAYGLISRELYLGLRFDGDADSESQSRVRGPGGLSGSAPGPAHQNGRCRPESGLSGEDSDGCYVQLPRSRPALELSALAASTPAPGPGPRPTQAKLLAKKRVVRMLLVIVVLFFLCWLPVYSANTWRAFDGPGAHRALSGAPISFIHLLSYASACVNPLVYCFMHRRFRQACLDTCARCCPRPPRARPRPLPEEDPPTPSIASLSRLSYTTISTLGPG
Nature of the assay: guinea-pig fundus assay for gastrin activity (stomach muscle strips). The settings on record: 10^-8 M devazepide present, 60 minute equilibration, agonist e.g. pentagastrin, standard errors less than 5%. The procedure:
The compounds were assayed for gastrin activity using the mouse stomach assay as described by Black, J. W. and Shankley, N. P., Br. J. Pharmacol., 86, 571-579, (1985), and also in the guinea-pig fundus assay, as follows:
The stomach is removed from a male Dunkin-Hartley guinea-pig (250-500 g), and Krebs solution is injected through a hypodermic needle under the top stomach muscle layer. The composition (mM) of the Krebs solution is as follows: Na^+ 143, K^+ 5.9, Ca^2+ 2.5, Mg^2+ 1.2, Cl^- 128, H2 PO4^- 2.2, HCO3^- 24.9, SO4^2- 1.2, dextrose 10. Strips of muscle (approximately 2.5 cm by 1 cm) are removed from the proximal area of the stomach (one from each side) and tied with cotton thread to isotonic transducers under an initial loading tension of 0.35 g.
The preparation is immersed in 20 mls of Krebs solution containing 10^-8 M devazepide (25 μl 2×10^-3 M devazepide/100% DMF solution in 5 dm^3 Krebs) and gassed with 95% O2 /5% CO2. The function of the devazepide is to block possible effects at CCK receptors present in the tissue.
The preparation is washed twice over a 60 minute period then 10 mM KCl is added. At 90 minutes, test compounds (ie. potential antagonists) are added and a further 60 minute equilibration period allowed. After this time, cumulative agonist (e.g. pentagastrin) dose-response curves are constructed.

Assay [2] has as its target T2, gastrin receptor (Mus musculus, UniProt P56481).
T2 construct: assayed for gastrin activity using the mouse stomach assay; from tissue; host or cells: isolated mouse stomach
T2 sequence (P56481 1-453): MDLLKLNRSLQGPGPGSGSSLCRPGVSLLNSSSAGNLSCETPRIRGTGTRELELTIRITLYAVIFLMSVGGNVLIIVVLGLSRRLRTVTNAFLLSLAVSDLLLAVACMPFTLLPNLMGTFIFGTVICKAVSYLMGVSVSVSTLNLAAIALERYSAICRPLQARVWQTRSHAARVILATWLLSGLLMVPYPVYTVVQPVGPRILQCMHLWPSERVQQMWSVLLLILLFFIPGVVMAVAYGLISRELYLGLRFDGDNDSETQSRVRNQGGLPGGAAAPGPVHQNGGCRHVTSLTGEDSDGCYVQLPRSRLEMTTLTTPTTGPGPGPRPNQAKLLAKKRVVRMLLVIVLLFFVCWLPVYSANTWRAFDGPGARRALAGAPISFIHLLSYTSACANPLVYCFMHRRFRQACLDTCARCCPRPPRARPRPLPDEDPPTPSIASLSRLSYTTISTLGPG
Nature of the assay: mouse stomach assay for gastrin activity (isolated stomach, acid secretion). The procedure: The compounds were assayed for gastrin activity using the mouse stomach assay as described by Black, J. W. and Shankley, N. P., Br. J. Pharmacol., 86, 571-579, (1985), and also in the guinea-pig fundus assay, as follows: […]

Assay [3] has as its target T3, cholecystokinin receptors (Cavia porcellus, UniProt Q63931).
T3 construct: Isolated, strip preparations were prepared from gall-bladders removed from male Dunkin-Hartley guinea-pigs; from tissue; host or cells: guinea-pig gall-bladder strips
T3 sequence (Q63931 1-430): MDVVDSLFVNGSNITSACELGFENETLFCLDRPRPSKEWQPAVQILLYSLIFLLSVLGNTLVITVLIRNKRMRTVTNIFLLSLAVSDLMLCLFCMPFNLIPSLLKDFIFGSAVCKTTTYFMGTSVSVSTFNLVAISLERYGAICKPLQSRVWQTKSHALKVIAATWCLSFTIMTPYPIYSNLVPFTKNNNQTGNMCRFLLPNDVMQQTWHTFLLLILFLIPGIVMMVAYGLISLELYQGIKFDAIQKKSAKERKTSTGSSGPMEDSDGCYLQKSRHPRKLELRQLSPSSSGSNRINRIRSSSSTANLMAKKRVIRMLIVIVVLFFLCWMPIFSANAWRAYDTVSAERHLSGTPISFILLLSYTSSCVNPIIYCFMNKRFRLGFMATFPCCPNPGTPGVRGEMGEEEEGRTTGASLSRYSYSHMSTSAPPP
Nature of the assay: CCK-antagonist activity in isolated guinea-pig gall-bladder strip preparations. The settings on record: guinea-pig gall-bladder strips; CCK-8 as agonist; test compound incubated for 60 minutes; standard errors less than 5%. The procedure: The compounds of the invention were also assayed for CCK-antagonist activity as follows:
Isolated, strip preparations were prepared from gall-bladders removed from male Dunkin-Hartley guinea-pigs (250-500 g body weight) according to the method of La Morte, W. W., et al., J.P.E.T., 217, (3), 638-644 (1981).
The complete gall-bladder is removed and opened along the longitudinal axis. Strips measuring 3 mm in the longitudinal axis and 1 mm in the transverse axis are cut and then tied with cotton to stainless steel wires. The preparation is connected to a GRASS FTO3 isometric transducer under an initial loading tension of 1 g and is immersed in 20 mls of Krebs solution maintained at 37° C. and gassed with 95% O2 /5% CO2. The Krebs solution is as detailed above in connection with the fundus assay, except that the Ca^2+ concentration is decreased to 0.5 mM. After 30 mins the preparation is washed. Drug addition begins after an initial 90 min stabilisation period. Responses are measured as changes in tension from that immediately prior to any drug addition. Single cumulative agonist concentration-effect curves, using CCK-8 as agonist, are obtained on each preparation in the absence and presence of test compound which has been incubated for 60 minutes. The antagonist activity of the test compound is estimated and expressed as the negative logarithm (base 10) of the equilibrium dissociation constants (pK8) using the modifications of standard competitive analysis described by Black et al., Br. J. Pharmacol.,86,571-579, (1985) and Shankley et al., Br. J. Pharmacol.,94,264-274 (1988).

The pKB is −log10 of the KB, conventionally taken in molar units. Read a low pKB as a high KB. Turning to `CN(C)C(=O)[C@H](Cc1ccccc1)NC(=O)[C@H](CC(=O)O)NC(=O)[C@H](Cc1ccc2ccccc2c1)NC(=O)[C@H](Cc1c[nH]c2ccccc12)NC(=O)OC(C)(C)C` [Example 6, N-t-Butyloxycarbonyl-L-tryptophyl-L-3-(2-naphthyl)alanyl-L-aspartyl-L-phenylalanyl-(N,Ndimethyl)amide] (Boc-W[2Nal]DF-NMe2), the pKB on gastrin receptor [1] is 5.6. This compound returned a pKB mouse stomach at gastrin receptor [2] (isolated mouse stomach assay, gastrin antagonism, standard errors less than 5%) of 5.6. Besides, the “Acid seretion at 10^-5 M test compound, relative to pentagastrin (%)” value on gastrin receptor [2] (mouse stomach, 10^-5 M test compound, relative to pentagastrin, NS = not significant) is given as 22%.
For the compound `CC(C)(C)OC(=O)N[C@@H](Cc1c[nH]c2ccccc12)C(=O)N[C@@H](Cc1ccc2ccccc2c1)C(=O)N[C@@H](CC(=O)O)C(=O)NCCc1ccc([N+](=O)[O-])cc1` [Example 30, N-t-Butyloxycarbonyl-L-tryptophyl-L-3-(2-naphthyl)alanyl-L-aspartyl-4-nitrophenethylamide], the values for the pKB (at gastrin receptor [1]; in assay [3]) were 5.7 and 6.6, respectively.
Regarding `Cc1cccc(CCNC(=O)[C@H](CC(=O)O)NC(=O)[C@H](Cc2ccc3ccccc3c2)NC(=O)[C@H](Cc2c[nH]c3ccccc23)NC(=O)OC(C)(C)C)c1` [Example 39, N-t-Butyloxycarbonyl-L-tryptophyl-L-3-(2-naphthyl)alanyl-L-aspartyl-3-methylphenethylamide], the pKB is reported as 5.4 on gastrin receptor [1] and 6.7 in assay [3].
The corresponding values for `CC(C)(C)OC(=O)N[C@@H](Cc1c[nH]c2ccccc12)C(=O)N[C@@H](Cc1ccc2ccccc2c1)C(=O)N[C@@H](CC(=O)O)C(=O)NCCc1ccncc1` [Example 44, N-t-Butyloxycarbonyl-L-tryptophyl-L-3-(2-naphthyl)alanyl-L-aspartyl-2-(4-pyridyl)ethylamide] are 6.0 and 6.2.
The corresponding values for `COc1cc2c(cc1OC)CN(C(=O)C(CC(=O)O)NC(=O)C(Cc1ccc3ccccc3c1)NC(=O)C(Cc1c[nH]c3ccccc13)NC(=O)OC(C)(C)C)CC2` [Example 48, N-t-Butyloxycarbonyl-L-tryptophyl-L-3-(2-naphthyl)alanyl-L-aspartyl-2-N-(6,7-dimethoxy-1,2,3,4-tetrahydro)isoquinolinamide] are 5.7 and 6.6.
The corresponding values for `CC(C)(C)OC(=O)N[C@@H](Cc1c[nH]c2ccccc12)C(=O)N[C@@H](Cc1ccc2ccccc2c1)C(=O)N[C@@H](CC(=O)O)C(=O)NCCc1ccc(S(N)(=O)=O)cc1` [Example 49, N-t-Butyloxycarbonyl-L-tryptophyl-L-3-(2-naphthyl)alanyl-L-aspartyl-4-sulphonamidophenethylamide] are 6.2 and 6.8.
For `COc1ccc(CNC(=O)[C@H](CC(=O)O)NC(=O)[C@H](Cc2ccc3ccccc3c2)NC(=O)[C@H](Cc2c[nH]c3ccccc23)NC(=O)OC(C)(C)C)cc1` [Example 51], the figures for the negative-log KB (pKB) (on gastrin receptor [1]; in assay [3]) were 5.7 and 7.0, respectively.
On to `CC(C)(C)OC(=O)N[C@@H](Cc1c[nH]c2ccccc12)C(=O)N[C@@](C)(Cc1ccc2ccccc2c1)C(=O)N[C@@H](CC(=O)O)C(=O)N[C@@H](Cc1ccccc1)C(N)=O` [Example 57, N-t-Butyloxycarbonyl-L-tryptophyl-L-2-methyl-3-(2-naphthyl)alanyl-L-aspartyl-L-phenylalaninamide], for which the negative logarithm of the KB (pKB) was determined as 5.6 at gastrin receptor [1] and 6.0 in assay [3].
Taken in the same sequence, the figures for `COc1ccc(CCNC(=O)[C@H](CCC(=O)O)NC(=O)[C@H](Cc2ccc3ccccc3c2)NC(=O)[C@H](Cc2c[nH]c3ccccc23)NC(=O)OC(C)(C)C)cc1` [Example 61, N-t-Butyloxycarbonyl-L-tryptophyl-L-3-(2-naphthyl)alanyl-L-glutamyl-4-methoxyphenethylamide] were 5.7 and 6.5.
Taken in the same sequence, the figures for `CC(C)(C)CCNC(=O)[C@H](CC(=O)O)NC(=O)[C@H](Cc1ccc2ccccc2c1)NC(=O)[C@H](Cc1c[nH]c2ccccc12)NC(=O)OC(C)(C)C` [Example 64, N-t-Butyloxycarbonyl-L-tryptophyl-L-3-(2-naphthyl)alanyl-L-aspartyl-3,3-dimethylbutylamide] were 5.9 and 7.0.
Taken in the same sequence, the figures for “N-t-Butyloxycarbonyl-L-tryptophyl-L-3-(2-naphthyl)alanyl-L-aspartyl-1-indanylamide [Example 25]” were 5.7 and 6.3.
In the case of “N-t-Butyloxycarbonyl-L-tryptophyl-L-3-(2-naphthyl)alanyl-L-aspartyl-3,4-dimethoxyphenethylamide [Example 41]”, the negative-log KB (pKB) on gastrin receptor [1] amounted to 6.0; in assay [3] it was 6.5.
Regarding “N-t-Butyloxycarbonyl-L-tryptophyl-L-3-(2-naphthyl)alanyl-L-aspartyl-4-hydroxyphenethylamide [Example 38]”, the values for the pKB (at gastrin receptor [1]; in assay [3]) were 5.9 and 7.1, respectively.
The corresponding values for “N-t-Butyloxycarbonyl-L-tryptophyl-L-3-(2-naphthyl)alanyl-L-aspartyl-L-3-cyclohexylalaninamide [Example 36]” are 5.4 and 6.3.
On to “N-t-Butyloxycarbonyl-L-tryptophyl-L-3-(2-naphthyl)alanyl-L-aspartyl-trans- 2-phenylcyclopropylamide [Example 29]”, for which the pKB on gastrin receptor [1] stood at 6.0; in assay [3], 5.9.
As for “N-t-Butyloxycarbonyl-L-tryptophyl-L-3-(2-naphthyl)alanyl-L-aspartyl-α-2-phenethylester [Example 63]”, the pKB is reported as 5.9 on gastrin receptor [1] and 7.0 in assay [3].
